# Measured values published in patent US9932339B2, “Helquats with heteroaromatic substituents, preparation thereof, and use thereof as G-quadruplex stabilizers” (USTAV ORGANICKE CHEMIE A BIOCHEMIE AV CR, V.V.I., priority 2014, dated 2018).
# What was measured:
# [1] = tested on: G-quadruplex in promoter region of the c-myc gene (NHE III1 segment); experiment: Dual luciferase analysis with plasmid pGL4.10-myc (luc2) in HGC-27 cells; type: cell-based, human; details: Homo sapiens; for inhibition at 50 µM: HGC-27, text summary of tab. 5 (50 μmol·l^−1), read-out: inhibition of expression of firefly luciferase as compared to control; for activity at 50 µM: helquat 50 μmol · l^−1, HGC-27, firefly normalized to Renilla, 24 hours after transfection, read-out: luciferase expression relative to control (control = 100%)
# Outline: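 HGC-27 cells were co-transfected 1:1 with pGL4.10-myc (luc2), whose firefly luciferase is driven by an 860 bp c-myc regulatory region containing the G-quadruplex-forming NHE III1 segment, and pRL-TK Renilla control, using X-tremeGENE HP DNA in OptiMEM. Compounds were added two hours post-transfection; luminescence read 24 hours after transfection was Renilla-normalized and expressed relative to control.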
# c-myc protein = experiment: Immunodetection of protein c-myc in HGC-27 cell lysates (Western blot); type: cell-based, human; details: 50 μmol · l^−1, 24 hour incubation, normalized to β-actin
# Method: Determination of changes in c-myc protein expression (transcription factor) in cell lysates prepared from tumor cell line HGC-27 after treatment with test helquats (Tab. 7) was carried out by immunodetection after separation of proteins according to their size by gel electrophoresis (SDS-PAGE) and blotting.
# To determine the influence helquats on expression of c-myc protein, the cells were cultured under standard conditions and in the exponential growth phase were seeded into flasks at a density of 25,000 cells/cm^2. The next day selected helquats were added at a concentration of 50 μmol·l^−1. After 24 hour incubation, the cell pellets were obtained and, after addition of RIPA buffer with protease inhibitors (PrIC) and phosphatases (PhIC) (for composition see Tab. 8) cell lysates were prepared. 150 μl of RIPA buffer was used for 10^7 cells. Protein concentrations in the lysates were measured by BCA method. Separation of proteins in the lysates was carried out on a 12% denaturing polyacrylamide gel. The separated proteins were transferred to PVDF membrane by Western blotting.
# Incubation with primary mouse monoclonal antibody against the protein c-myc (dilution 1:1000 in “SignalBoost” reagent) was carried out overnight at 4° C., and then with the primary mouse anti-β-actin (1:5000 dilution in 5% milk in TBS-T buffer) at room temperature for 2 hours. Subsequently, the secondary horse monoclonal antibody conjugated to horseradish peroxidase (diluted 1:2000 in 5% milk in TBS-T buffer) binding to mouse IgG antibody was applied. C-myc proteins and β-actin bound to the membrane were visualized using detection kit (SuperSignal® West Femto Maximum Sensitivity Substrate, Cat. No. 34095, Thermo Fisher Scientific, Inc., USA) in the chemiluminescence detection system ImageQuant LAS 4000 Mini (Cat. No. 28-9558-13, GE Healthcare Life Sciences, USA). The amount of protein was quantified by densitometry in Quantity One software. The amount of c-myc in the samples was normalized to β-actin, and subsequently related to a control sample.
SMILES,inhibition at 50 µM [1],activity at 50 µM [1],c-myc protein expression relative to control (control = 100%) (c-myc protein)
"Cc1c(C)c2c(c3c1CC[n+]1ccc(/C=C/c4ccsc4)cc1-3)-c1cccc(/C=C/c3ccsc3)[n+]1CC2 (racemic) [MJB-C5-9, (rac)-8,9-dimethyl-2,13-bis((E)-2-(thiophen-3-yl)vinyl)-6,7,10,11-tetrahydrodipyrido[2,1-a:1′,2′-k][2,9]phenanthroline-5,12-diium trifluoromethanesulfonate]",> 20%,75%,30%
"C(=C\c1cccc2c1oc1ccccc12)/c1cc[n+]2c(c1)-c1c(ccc3c1-c1cccc[n+]1CC3)CC2.O=S(=O)([O-])C(F)(F)F.O=S(=O)([O-])C(F)(F)F [LSA-C13-8, (E)-2-(2-(dibenzo[b,d]furan-4-yl)vinyl)-6,7,10,11-tetrahydrodipyrido[2,1-a:1′,2′-k][2,9]phenanthroline-5,12-diium trifluoromethanesulfonate]",> 40%,58%,15%
"CCOC(=O)c1cc(/C=C/c2cc[n+]3c(c2)-c2c(c(C)c(C)c4c2-c2c5ccccc5cc[n+]2CC4)CC3)c[nH]1.O=S(=O)([O-])C(F)(F)F.O=S(=O)([O-])C(F)(F)F [MJA-C8-28, (E)-13-(2-(5-(ethoxycarbonyl)-1H-pyrrol-3-yl)vinyl)-6,7-dimethyl-4,5,8,9-tetrahydroisoquinolino[1,2-a]pyrido[1,2-k][2,9]phenanthroline-3,10-diium trifluoromethanesulfonate]",> 20%,72%,23%
"CCCCCCc1ccc(/C=C/c2cc[n+]3c(c2)-c2c(c(C)c(C)c4c2-c2c5ccccc5cc[n+]2CC4)CC3)s1.O=S(=O)([O-])C(F)(F)F.O=S(=O)([O-])C(F)(F)F [MJA-C11-25, (E)-13-(2-(5-hexylthiophen-2-yl)vinyl)-6,7-dimethyl-4,5,8,9-tetrahydroisoquinolino[1,2-a]pyrido[1,2-k][2,9]phenanthroline-3,10-diium trifluoromethanesulfonate]",–,–,66%
"Cc1c(C)c2c(c3c1CC[n+]1ccc(/C=C/c4ccc(-n5c6ccccc6c6ccccc65)cc4)cc1-3)-c1c3ccccc3cc[n+]1CC2.O=S(=O)([O-])C(F)(F)F.O=S(=O)([O-])C(F)(F)F [MJA-C19-4, (E)-13-(4-(9H-carbazol-9-yl)styryl)-6,7-dimethyl-4,5,8,9-tetrahydroisoquinolino[1,2-a]pyrido[1,2-k][2,9]phenanthroline-3,10-diium trifluoromethanesulfonate]",–,–,81%
"Cc1nc[nH]c1/C=C/c1cc[n+]2c(c1)-c1c(c(C)c(C)c3c1-c1cccc(/C=C/c4[nH]cnc4C)[n+]1CC3)CC2.O=S(=O)([O-])C(F)(F)F.O=S(=O)([O-])C(F)(F)F [MJB-C5-11, 8,9-dimethyl-2,13-bis((E)-2-(4-methyl-1H-imidazol-5-yl)vinyl)-6,7,10,11-tetrahydrodipyrido[2,1-a:1′,2′-k][2,9]phenanthroline-5,12-diium trifluoromethanesulfonate]",–,–,23%
"Cc1nc[nH]c1/C=C/c1cc[n+]2c(c1)-c1c(ccc3c1-c1cc(/C=C/c4[nH]cnc4C)cc[n+]1CC3)CC2.O=S(=O)([O-])C(F)(F)F.O=S(=O)([O-])C(F)(F)F [PDA-C5-11, 2,15-bis((E)-2-(4-methyl-1H-imidazol-5-yl)vinyl)-6,7,10,11-tetrahydrodipyrido[2,1-a:1′,2′-k][2,9]phenanthroline-5,12-diium trifluoromethanesulfonate]",–,–,80%
"Cc1c(C)c2c(c3c1CC[n+]1ccc(/C=C/c4cccc5c4oc4ccccc45)cc1-3)-c1cc(/C=C/c3cccc4c3oc3ccccc34)cc[n+]1CC2.O=S(=O)([O-])C(F)(F)F.O=S(=O)([O-])C(F)(F)F [PDB-C13-8, 2,15-bis((E)-2-(dibenzo [b,d]furan-4-yl)vinyl)-8,9-dimethyl-6,7,10,11-tetrahydrodipyrido[2,1-a:1′,2′-k][2,9]phenanthroline-5,12-diium trifluoromethanesulfonate]",–,–,83%
"Cc1c(C)c2c(c3c1CC[n+]1ccc4ccccc4c1-3)-c1cccc(/C=C/c3cccc4c3oc3ccccc34)[n+]1CC2.O=S(=O)([O-])C(F)(F)F.O=S(=O)([O-])C(F)(F)F [VDJA-C13-8, (E)-11-(2-(dibenzo[b,d]furan-4-yl)vinyl)-6,7-dimethyl-4,5,8,9-tetrahydroisoquinolino[1,2-a]pyrido[1,2-k][2,9]phenanthroline-3,10-diium trifluoromethanesulfonate]",> 20%,76%,77%
